This experiment relates to PDE4. Description: Evaluation of PDE4 inhibitory activity, scintillation proximity assay. The experiment is classed as biochemical. The note with it: scintillation proximity assay; class symbols of Evaluation 1; read-out: PDE4 Inhibitory Activity (concentration for the inhibition rate of 50%, IC50), Evaluation 1. How it is done: The BDE4 inhibitory activity was measured using scintillation proximity assay (SPA) as follows. First, a test compound dissolved in dimethyl sulfoxide was diluted 1:10 in reaction buffer solution which contained 50 mM of Tris-HCl with pH 7.4, 8.3 mM of MgCl2, 1.7 mM of EGTA, and 3 mg/mL of bovine serum albumin (BSA). Then, 10 μL of the diluted solution was added in a 96-well assay plate. Moreover, 50 μL of PDE4 (enzyme preparation) diluted 1:375 in the reaction buffer solution was added, and then 40 μL of [2,8-^3H]-adenosine-3′,5′-cyclic phosphate triethylammonium salt diluted 1:1000 in the reaction buffer solution was added. The mixture was allowed to stand at room temperature for 120 minutes. Thereafter, […] of RNA binding YSi-SPA beads suspension containing ZnSO4 was added and the mixture was allowed to stand at room temperature for 15 minutes, followed by adsorption of the enzyme reaction product to the beads. After that, the radioactivity was measured using a liquid scintillation counter for a 96-well plate. The mixture without the enzyme preparation added but only the reaction buffer solution added is a blank, and the mixture with the enzyme preparation added and only dimethyl sulfoxide added instead of the test compound is a control.
In addition, the PDE4 inhibitory activity (concentration that inhibits PDE4 activity by 50%=concentration for the inhibition rate of 50% (IC50)) of the test compound was calculated from the inhibition curves based on the inhibition rates for various concentrations of the test compound.

Structures are written as SMILES.

As for `Oc1ccc(-c2nccs2)c2oc(N3CC4CCC(C3)N4)nc12` [Example 78, 2-(3,8-Diazabicyclo[3.2.1]octan-3-yl)-7-(thiazol-2-yl)benzo[d]oxazol-4-ol], the IC50 is below 100 nM.
With `Oc1ccc(-c2nccs2)c2oc(N3CC4CC(C3)N4)nc12` [Example 79, 2-(3,6-Diazabicyclo[3.1.1]heptan-3-yl)-7-(thiazol-2-yl)benzo[d]oxazol-4-ol], the IC50 was below 100 nM.
For the compound `Oc1ccc(-c2nccs2)c2oc(N3CC4CCCC(C3)N4)nc12` [Example 80, 2-(3,9-Diazabicyclo[3.3.1]nonan-3-yl)-7-(thiazol-2-yl)benzo[d]oxazol-4-ol], the IC50 is below 100 nM.
For the compound `c1csc(-c2ccc(OC3CCC3)c3nc(N4CC5CCC(C4)N5)oc23)n1` [Example 81, 2-(3,8-Diazabicyclo[3.2.1]octan-3-yl)-4-cyclobutoxy-7-(thiazol-2-yl)benzo[d]oxazole], the IC50 is below 100 nM.
As for `N#CCOc1ccc(-c2nccs2)c2oc(N3CC4CCC(C3)N4)nc12` [Example 82, 2-((2-(3,8-Diazabicyclo[3.2.1]octan-3-yl)-7-(thiazol-2-yl)benzo[d]oxazol-4-yl)oxy)acetonitrile], the IC50 is below 100 nM.
As to `COCC(O)COc1ccc(-c2nccs2)c2oc(N3CC4CCC(C3)N4)nc12` (stereo not drawn) [Example 83, 1-((2-(3,8-Diazabicyclo[3.2.1]octan-3-yl)-7-(thiazol-2-yl)benzo[d]oxazol-4-yl)oxy)-3-methoxypropan-2-ol], the IC50 was below 100 nM.
For `c1csc(-c2ccc(OC3CCOC3)c3nc(N4CC5CCC(C4)N5)oc23)n1` (stereo not drawn) [Example 84, 2-(3,8-Diazabicyclo[3.2.1]octan-3-yl)-4-((tetrahydrofuran-3-yl)oxy)-7-(thiazol-2-yl)benzo[d]oxazole] the value was below 100 nM; for `c1csc(-c2ccc(-c3nccs3)c3oc(N4CC5CCC(C4)N5)nc23)n1` [Example 85, 2-(3,8-Diazabicyclo[3.2.1]octan-3-yl)-4,7-di(thiazol-2-yl)benzo[d]oxazole], below 100 nM.
Then `CCOC(=O)c1cc(-c2nccs2)c2oc(N3CC4CCC(C3)N4)nc2c1` [Example 86, Ethyl 2-(3,8-diazabicyclo[3.2.1]octan-3-yl)-7-(thiazol-2-yl)benzo[d]oxazole-5-carboxylate], with below 100 nM; and `CCOC(=O)c1cc(-c2nccs2)c2oc(N3CC4CC(C3)N4)nc2c1` [Example 87, Ethyl 2-(3,6-diazabicyclo[3.1.1]heptan-3-yl)-7-(thiazol-2-yl)benzo[d]oxazole-5-carboxylate], with below 100 nM; and `CCOC(=O)c1cc(-c2nccs2)c2oc(N3CC4COCC(C3)N4)nc2c1` [Example 88, Ethyl 2-(3-oxa-7,9-diazabicyclo[3.3.1]nonan-7-yl)-7-(thiazol-2-yl)benzo[d]oxazole-5-carboxylate], with 100 to 1000 nM.
For `CCOC(=O)c1cc(-c2nccs2)c2oc(N3CC4CCCC(C3)N4)nc2c1` [Example 89, Ethyl 2-(3,9-diazabicyclo[3.3.1]nonan-3-yl)-7-(thiazol-2-yl)benzo[d]oxazole-5-carboxylate] the value was below 100 nM; for `CCOC(=O)c1cc(-n2cccn2)c2oc(N3CC4CCC(C3)N4)nc2c1` [Example 90, Ethyl 2-(3,8-diazabicyclo[3.2.1]octan-3-yl)-7-(1H-pyrazol-1-yl)benzo[d]oxazole-5-carboxylate], 100 to 1000 nM.
In the case of `CCOC(=O)c1cc(-n2cccn2)c2oc(N3CC4CC(C3)N4)nc2c1` [Example 91, Ethyl 2-(3,6-diazabicyclo[3.1.1]heptan-3-yl)-7-(1H-pyrazol-1-yl)benzo[d]oxazole-5-carboxylate], the IC50 is above 1000 nM.
`CCOC(=O)c1cc(-n2cccn2)c2oc(N3CC4COCC(C3)N4)nc2c1` [Example 92, Ethyl 2-(3-oxa-7,9-diazabicyclo[3.3.1]nonan-7-yl)-7-(1H-pyrazol-1-yl)benzo[d]oxazole-5-carboxylate]: the IC50 is above 1000 nM.
With `CCOC(=O)c1cc(-n2cccn2)c2oc(N3CC4CCCC(C3)N4)nc2c1` [Example 93, Ethyl 2-(3,9-diazabicyclo[3.3.1]nonan-3-yl)-7-(1H-pyrazol-1-yl)benzo[d]oxazole-5-carboxylate], the IC50 fell in the range of 100 to 1000 nM.
For `CN(C)C(=O)c1cc(-c2nccs2)c2oc(N3CC4CCC(C3)N4)nc2c1` [Example 94, 2-(3,8-Diazabicyclo[3.2.1]octan-3-yl)-N,N-dimethyl-7-(thiazol-2-yl)benzo[d]oxazole-5-carboxamide] the value was below 100 nM.
Then `O=C(c1cc(-c2nccs2)c2oc(N3CC4CCC(C3)N4)nc2c1)N1CCOCC1` [Example 95, (2-(3,8-Diazabicyclo[3.2.1]octan-3-yl)-7-(thiazol-2-yl)benzo[d]oxazol-5-yl) (morpholino)methanone], with below 100 nM; and `O=C(c1cc(-c2nccs2)c2oc(N3CC4CCC(C3)N4)nc2c1)N1CCCCC1` [Example 96, (2-(3,8-Diazabicyclo[3.2.1]octan-3-yl)-7-(thiazol-2-yl)benzo[d]oxazol-5-yl)(piperidin-1-yl)methanone], with below 100 nM.
With `O=C(c1cc(-c2nccs2)c2oc(N3CC4CCC(C3)N4)nc2c1)N1CCC1` [Example 97, (2-(3,8-Diazabicyclo[3.2.1]octan-3-yl)-7-(thiazol-2-yl)benzo[d]oxazol-5-yl)(azetidin-1-yl)methanone], the IC50 is below 100 nM.
Then `O=C(NCc1ccccc1)c1cc(-c2nccs2)c2oc(N3CC4CCC(C3)N4)nc2c1` [Example 98, N-benzyl-2-(3,8-diazabicyclo[3.2.1]octan-3-yl)-7-(thiazol-2-yl)benzo[d]oxazole-5-carboxamide], with below 100 nM; and `NC(=O)c1cc(-c2nccs2)c2oc(N3CC4CCC(C3)N4)nc2c1` [Example 99, 2-(3,8-Diazabicyclo[3.2.1]octan-3-yl)-7-(thiazol-2-yl)benzo[d]oxazole-5-carboxamide], with below 100 nM.
Then `CNC(=O)c1cc(-c2nccs2)c2oc(N3CC4CCC(C3)N4)nc2c1` [Example 100, 2-(3,8-Diazabicyclo[3.2.1]octan-3-yl)-N-methyl-7-(thiazol-2-yl)benzo[d]oxazole-5-carboxamide], with below 100 nM; and `CC(=O)N(C)c1cc(-c2nccs2)c2oc(N3CC4CCC(C3)N4)nc2c1` [Example 101, N-(2-(3,8-diazabicyclo[3.2.1]octan-3-yl)-7-(thiazol-2-yl)benzo[d]oxazol-5-yl)-N-methylacetamide], with below 100 nM.
Take `COC(C)(c1cc(-c2nccs2)c2oc(N3CC4CCC(C3)N4)nc2c1)C(F)(F)F` (stereo not drawn) [Example 102, 2-(3,8-Diazabicyclo[3.2.1]octan-3-yl)-7-(thiazol-2-yl)-5-(1,1,1-trifluoro-2-methoxypropan-2-yl)benzo[d]oxazole]: the IC50 is below 100 nM.
Regarding `COC(C)(c1cc(-c2nccs2)c2oc(N3CC4CC(C3)N4)nc2c1)C(F)(F)F` (stereo not drawn) [Example 103, 2-(3,6-Diazabicyclo[3.1.1]heptan-3-yl)-7-(thiazol-2-yl)-5-(1,1,1-trifluoro-2-methoxypropan-2-yl)benzo[d]oxazole], the IC50 was below 100 nM.
For `COC(c1cc(-c2nccs2)c2oc(N3CC4CCC(C3)N4)nc2c1)C(F)F` (stereo not drawn) [Example 105, 2-(3,8-Diazabicyclo[3.2.1]octan-3-yl)-5-(2,2-difluoro-1-methoxyethyl)-7-(thiazol-2-yl)benzo[d]oxazole] the value was below 100 nM.

The values above are taken from US12239643B2, “Therapeutic agent for inflammatory diseases, autoimmune diseases, fibrotic diseases, and cancer diseases” (MEIJI SEIKA PHARMA CO., LTD., priority 2018, dated 2025).
